As usually defined, the EC50 is the concentration needed to bring the measured effect to its halfway point.

Some results are limits rather than exact numbers.

In the first experiment the test system is isolated rabbit urinary bladder. Kind of experiment: Relaxation effect on potassium-induced contraction of isolated rabbit urinary bladder. The class given is cell-based. As to conditions: 50% relaxation concentration; high-K+ (30 mM) pre-contracted rabbit bladder strips; relaxation as percentage of the maximum produced by 0.1 mM papaverine; read-out: EC50 value range. As to the method: Relaxation effect on potassium-induced contraction of isolated rabbit urinary bladder
Urinary bladder was isolated from Male NZW rabbits (2.0-3.5 kg) and immersed in ice-cold Krebs-bicarbonate solution (in mM: 118 NaCl, 4.7 KCl, 1.2, 2.5 CaCl2, MgSO4, 1.2 KH2PO4, 11 glucose, 25 NaHCO3). The urinary bladder was cut into longitudinal strips (5 mm length, 3-4 mm width) after mucosal layer was removed. Preparations were mounted in organ baths containing 10 ml of Krebs solution maintained at 37° C. and gassed with 95% O2/5% CO2. Accordingly, preparations were stretched with an initial tension of 2.0±1.0 g, and changes in isometric tension were measured by force-displacement transducer. The preparations were pre-contracted by changing organ-bath solution into high-K^+ (30 mM) Krebs solution (in mM: 92.7 NaCl, 30 KCl, 1.2, 2.5 CaCl2, MgSO4, 1.2 KH2PO4, 11 glucose, 25 NaHCO3).
After stable tension was obtained, compounds were added into organ baths cumulatively (10^−8M-10^−4M). The effects of compounds were expressed as a percentage of the maximum relaxation produced by 0.1 mM papaverine. 50% relaxation concentration (EC50) was calculated and EC50 value range (μM) of the compounds of the present invention was shown in the following Table 64 with a rank of A, B or C. These ranges are as mentioned below. 3≧C≧1≧B≧0.5≧A
Regarding “5-(5-chlorothiophen-2-yl)-2-(4-fluorophenyl)oxazole-4-yl propionic acid sodium salt [Preparation Example 339]”, the EC50 was 1000 to 3000 nM.

The same experiment, now with this note: Oryctolagus cuniculus; 50% relaxation concentration; high-K+ (30 mM) pre-contracted rabbit bladder strips; relaxation as percentage of the maximum produced by 0.1 mM papaverine; read-out: EC50 value range.
For the compound `CC(C)c1nc(-c2ccc(F)cc2)[nH]c1-c1ccsc1` [Preparation Example 169], the EC50 was in the range of 1000 to 3000 nM.
Still for that read-out and setting: the value for `CCCCc1nc(-c2ccc(F)cc2)[nH]c1-c1ccsc1` [Preparation Example 170] was 1000 to 3000 nM; that for `Fc1ccc(-c2nc(CC(F)(F)F)c(-c3ccsc3)[nH]2)cc1` [Preparation Example 173] was 1000 to 3000 nM; that for `CCCc1nc(-c2ccccc2)[nH]c1-c1ccccc1` [Preparation Example 180] was 1000 to 3000 nM.
Turning to `O=C(O)Cc1nc(-c2ccc(Cl)cc2)oc1C1CCCC1` [Preparation Example 265], the EC50 is 1000 to 3000 nM.
Take `O=C(O)Cc1[nH]c(-c2cc3ccccc3s2)nc1-c1ccc(Cl)cc1` [Preparation Example 355]: the EC50 is at most 500 nM.
Same read-out and setting: the value for `CCOC(=O)C(N)c1nc(-c2ccc(F)cc2)oc1-c1ccc(Cl)s1` (stereo not drawn) [Preparation Example 372, ethyl 2-amino-2-[5-(5-chlorothiophen-2-yl)-2-(4-fluorophenyl)-oxazol-4-yl]acetate] was 1000 to 3000 nM.
Still for that read-out and setting: the value for `CN(C)c1ccc(-c2nc(-c3cccs3)c(CC(=O)O)o2)cn1` [Preparation Example 506] was 500 to 1000 nM; that for `COc1ccc(-c2nc(-c3cccs3)c(CC(=O)O)o2)cc1` [Preparation Example 507] was at most 500 nM.
On the same count and under the same terms, with `COc1ccc(-c2nc(-c3ccsc3)c(CC(=O)O)s2)cc1` [Preparation Example 597] the figure was at most 500 nM; with `CCCc1nc(-c2ccccn2)[nH]c1-c1cccs1` [Preparation example 5], 1000 to 3000 nM; with `CCc1nc(-c2csc(Br)c2)[nH]c1-c1cccnc1` [Preparation example 19], at most 500 nM.
In the case of `CCCc1nc(-c2ccsc2)[nH]c1-c1ccccc1` [Preparation example 33], the EC50 was at most 500 nM.
With `CCCc1nc(-c2ccc[nH]2)[nH]c1-c1ccccc1` [Preparation example 35], the concentration giving a half-maximal response (EC50) fell in the range of 1000 to 3000 nM.
The same measure, in the same setting: with `CCCc1nc(-c2cccc3ccccc23)[nH]c1-c1ccccc1` [Preparation example 36] the figure was 1000 to 3000 nM.

The subject of another experiment is rhythmic bladder contractions induced by substance P. The experiment is described as follows: Inhibitory effect on the rhythmic bladder contractions induced by substance P in anesthetized rats. The class given is in vivo, rat. Particulars: time during which frequency of rhythmic contraction was completely inhibited, 0.25 mg/kg of the compound, substance P infusion. As for the experimental part:
Inhibitory effect on the rhythmic bladder contractions induced by substance P in anesthetized rats
For the experiments, Sprague-Dawley female rats (9 to 12 weeks old) weighing between 200 to 300 g were used. After urethane anesthetization (subcutaneously administered with a dose of 1.2 g/kg), cannulae were placed in both right and left femoral veins. One intravenous catheter was used for administration of compounds, and the other was for the substance P (0.33 μg/kg/min) infusion. We also cannulated into ureter to pass urine. Polyethylene catheters were inserted into carotid artery for continuous monitoring of arterial blood pressure and heart rate. For continuous infusion, transurethral bladder catheter was inserted into the bladder through the urethra and tied in place by a ligature around the urethral orifice. One end of the catheter was attached to a pressure transducer in order to measure intravesical pressure. The other end of the catheter was used for infusion of saline into the bladder. After stabilization of blood pressure and heart rate and after the bladder was emptied, cystometry was performed by filling the bladder slowly with about 0.6 ml of saline. After about 10 minutes, intravenous infusion of substance P (0.33 μg/kg/min) was started for stabilization of the micturition reflex. Compounds were administered after stable rhythmic bladder contraction was obtained over 15 minutes. All compounds were dissolved or suspended in saline containing 0.5% Tween 80 for intravenous administration (0.1 ml/kg).
A 100% inhibition time (minute) of the selected compounds of the present invention is shown in the following Table 65 with a rank of A, B or C. These ranges are as mentioned below. A≧20>B≧10>C (minute)
Turning to `NC(=O)Cc1nc(-c2ccc(F)cc2)oc1-c1ccsc1` [Preparation Example 615], the “100% inhibition time range” value is “B (A≧20>B≧10>C (minute))”.
Consider `CCN(CC)C(=O)Cc1nc(-c2ccc(F)cc2)oc1-c1ccsc1` [Preparation Example 617], for which the “100% inhibition time range” value is “B (A≧20>B≧10>C (minute))”.
The same measure, in the same setting: with `NC(C(=O)O)c1nc(-c2ccc(F)cc2)oc1-c1ccc(Cl)s1` (stereo not drawn) [Preparation Example 627] the entry was “C (A≧20>B≧10>C (minute))”; with `CN(C)c1cnc(-c2nc(CC(=O)O)c(-c3ccc(Cl)s3)o2)cn1` [Preparation Example 628], “C (A≧20>B≧10>C (minute))”.
The same measure, in the same setting: the value for `O=C(O)Cc1nc(-c2ccc3nccn3c2)oc1-c1ccc(Cl)s1` [Preparation Example 630] was “C (A≧20>B≧10>C (minute))”; that for `Clc1cc(-c2ncc(-c3cccnc3)[nH]2)cs1` [Preparation example 24] was “C (A≧20>B≧10>C (minute))”; that for `CCc1nc(-c2ccc(C#N)cc2)[nH]c1-c1ccccc1` [Preparation example 27] was “B (A≧20>B≧10>C (minute))”.
`CCc1nc(-c2ccc(C)nc2)[nH]c1-c1ccccc1` [Preparation example 28]: the “100% inhibition time range” value is on record as “B (A≧20>B≧10>C (minute))”.
In the case of `CCCc1nc(-c2ccc(C#N)cc2)[nH]c1-c1ccccc1` [Preparation example 31], the “100% inhibition time range” value is “A (A≧20>B≧10>C (minute))”.
Still for that read-out and setting: with `Cl.Cl.N#CCCc1[nH]c(-c2ccc(F)cc2)nc1-c1cccnc1` [Preparation example 43, 5-(2-cyanoethyl)-2-(4-fluorophenyl)-4-(3-pyridyl)-imidazole dihydrochloride] the entry was “C (A≧20>B≧10>C (minute))”; with `N#CCCc1nc(-c2ccc(F)cc2)[nH]c1-c1ccsc1` [Preparation example 46], “B (A≧20>B≧10>C (minute))”; with `CCc1nc(-c2ccc(F)cc2)[nH]c1-c1ccc(C)nc1` [Preparation example 47], “B (A≧20>B≧10>C (minute))”.
On the same count and under the same terms, the value for `CCc1nc(-c2ccc(F)cc2)[nH]c1-c1cccnc1C` [Preparation example 48] was “C (A≧20>B≧10>C (minute))”.
Same read-out and setting: with `CCc1[nH]c(-c2sccc2CO)nc1-c1cccnc1.Cl.Cl` [Preparation example 67, 5-ethyl-2-(3-hydroxymethylthiphen-2-yl)-4-(3-pyridyl)imidazole dihydrochloride] the entry was “B (A≧20>B≧10>C (minute))”; with `CCc1[nH]c(-c2ccc(F)cc2)nc1C(=O)c1ccccn1` [Preparation example 72, 5-ethyl-2-(4-fluorophenyl)-imidazol-4-yl-(2-pyridyl) ketone], “C (A≧20>B≧10>C (minute))”; with `CCc1[nH]c(-c2ccc(F)cc2)nc1-c1cccnc1.Cl.Cl` [Preparation example 80, 5-ethyl-2-(4-fluorophenyl)-4-(3-pyridyl)imidazole dihydrochloride], “B (A≧20>B≧10>C (minute))”.
As for `CCc1nc(-c2ccc(C)nc2)[nH]c1-c1cncs1` [Preparation example 83], the “100% inhibition time range” value was “B (A≧20>B≧10>C (minute))”.
Still for that read-out and setting: with `CCc1nc(-c2ccc(F)cc2)[nH]c1-c1cncnc1` [Preparation example 85] the entry was “C (A≧20>B≧10>C (minute))”.
On the same count and under the same terms, with `CCCc1nc(-c2ccc(F)cc2)[nH]c1-c1cccnc1` [Preparation example 93] the entry was “B (A≧20>B≧10>C (minute))”; with `CCc1c(-c2cccnc2)nc(-c2ccc(F)cc2)n1C.Cl.Cl` [Preparation example 102, 5-ethyl-2-(4-fluoro-phenyl)-1-methyl-4-(3-pyridyl)imidazole dihydrochloride], “C (A≧20>B≧10>C (minute))”.
For the compound `CNc1[nH]c(-c2ccc(F)cc2)nc1-c1ccccc1` [Preparation example 107, 5-methylamino-2-(4-fluorophenyl)-4-phenylimidazole], the “100% inhibition time range” value was “B (A≧20>B≧10>C (minute))”.
Still for that read-out and setting: with `COCc1nc(-c2ccc(F)cc2)[nH]c1-c1ccsc1` [Preparation example 122] the entry was “B (A≧20>B≧10>C (minute))”; with `COCc1nc(-c2cccc(F)c2)[nH]c1-c1ccccc1` [Preparation example 123], “C (A≧20>B≧10>C (minute))”.
Still for that read-out and setting: the value for `COCc1nc(-c2ccc(C#N)cc2)[nH]c1-c1ccccc1` [Preparation example 124] was “B (A≧20>B≧10>C (minute))”; that for `COCc1nc(-c2ccc(C#N)cc2)[nH]c1-c1cccnc1` [Preparation example 125] was “C (A≧20>B≧10>C (minute))”.
Take `C[S+]([O-])Cc1nc(-c2ccc(C#N)cc2)[nH]c1-c1ccccc1` (stereo not drawn) [Preparation example 137]: the “100% inhibition time range” value was “C (A≧20>B≧10>C (minute))”.
For the compound `O=C(O)Cc1nc(-c2ccc(Cl)cc2)oc1-c1cccnc1` [Preparation example 142], the “100% inhibition time range” value is “C (A≧20>B≧10>C (minute))”.
Still for that read-out and setting: with `CCc1[nH]c(-c2cc(Cl)sc2S(=O)(=O)O)nc1-c1cccnc1.Cl.Cl` [Preparation example 143, 2-(5-Chloro-2-sulfothiophen-3-yl)-5-ethyl-4-(3-pyridyl)-imidazole dihydrochloride] the entry was “C (A≧20>B≧10>C (minute))”; with `CCc1[nH]c(-c2cc(Cl)sc2S(N)(=O)=O)nc1-c1cccnc1.Cl.Cl` [Preparation example 144, 2-(5-Chloro-2-sulfamoylthiophen-3-yl)-5-ethyl-4-(3-pyridyl) imidazole dihydrochloride], “C (A≧20>B≧10>C (minute))”.
